# Results as given in patent US8178506B2, “Oligomeric compounds and compositions for use in modulation of small non-coding RNAs” (Regulus Therapeutics Inc., priority 2003, dated 2012).
# Tested on: mir-143 binding site in 3′-UTR of ERK5
# Assay: pGL3-ERK5-3′UTR luciferase assays in HeLa cells
# Assay type: cell-based, human
# Conditions: for luciferase expression: HeLa cells, 24 hours
# Method: An expression system based on the pGL3-Control (Promega Corp., Madison Wis.) reporter vector and comprising predicted miRNA binding sites was used in transient transfections of HeLa cells with plasmids expressing oligomeric compounds mimicking miRNAs, pre-miRNAs or pri-miRNAs in order to assess the ability of these miRNA mimics to bind and regulate the expression of the luciferase reporter. The effect of increasing the copy number of the miRNA-binding site in the target was also tested by including multiple binding sites in artificial reporter constructs. It is understood that the presence of multiple miRNA-binding sites in a target can include binding sites for different miRNAs.
# The following reporter plasmids were constructed by cloning the specified fragment into the XbaI site of the pGL3-control plasmid, placing the potential miRNA-binding site in the 3′-UTR of the luciferase reporter: The reporter plasmid pGL3-bulge(×3) contains three contiguous copies of the sequence ([…]; herein incorporated as SEQ ID NO: 874) which represents a sequence complementary to the mir-143 miRNA except that it is missing 2 nucleotides such that the mir-143 miRNA is presumed to adopt a bulged structure when it hybridizes to this target sequence. The pGL3-GLO1 reporter plasmid contains a DNA fragment comprising the 3′-UTR of the GLO1 sequence; this fragment was PCR-amplified using a primer beginning at nucleotide number 621 of the GLO1 sequence (GenBank Accession NM_006708.1, SEQ ID NO: 821) and the downstream primer hybridizing to the poly A tail. The pGL3-PP2A reporter plasmid contains a DNA fragment comprising the 3′-UTR of the PP2A gene; this fragment was PCR-amplified using a primer beginning at nucleotide number 921 of the PP2A sequence (GenBank Accession NM_004156.1) and the downstream primer hybridizing to the poly A tail. The reporter plasmid pGL3-ERK5-3′-UTR(×1) contains one copy of the sequence […] (herein incorporated as SEQ ID NO: 875), found in the 3′-UTR of ERK5 and predicted by Lewis, et al. to be bound by the mir-143 miRNA, and the reporter plasmid pGL3-ERK5-3′UTR(×3) has three contiguous copies of this sequence. The reporter plasmid pGL3-ERK5-3′UTR(ext) contains one copy of the sequence […] (herein incorporated as SEQ ID NO: 876), which includes an additional ten nucleotides at either end of the mir-143 binding site in 3′-UTR of ERK5 predicted by Lewis, et al. (Lewis et al., Cell, 2003, 115, 787-798). The plasmids pGL3-ERK5-cds(×1), pGL3-ERK5-cds(×2), pGL3-ERK5-cds(×3), and pGL3-ERK5-cds(×5) contain one, two, three or five contiguous copies, respectively, of the novel mir-143 binding site ([…]; herein incorporated as SEQ ID NO: 877) we identified within the coding sequence of ERK5. The unmodified pGL3-Control luciferase reporter vector was used as a negative control, and the pGL3-mir-143 sensor reporter plasmid was used as a positive control.
# HeLa cells were routinely cultured and passaged as described. In some embodiments, HeLa cells were transfected with 0.05 μg of the relevant pGL3-sensor plasmid and 0.01 μg pRL-CMV plasmid. Additionally, in some embodiments, cells were treated at various dosages (11 nM, 33 nM, and 100 nM) with the following oligomeric compound mimics: 1) ds-mir-143, or 2) ds-Control as described. In accordance with methods described in Example 12, a luciferase assay was performed 24-hours after transfection. The results, shown in Tables 40 and 41, are an average of three trials. Data are presented as percent untreated control (luciferase plasmid only, not treated with oligomeric compound) luciferase expression, normalized to pRL-CMV levels.
substance,measurement,setting,value
"ds-mir-143: double-stranded RNA of ISIS 342199 hybridized to its perfect complement ISIS 342200 (sense UGAGAUGAAGCACUGUAGCUCA; antisense UGAGCUACAGUGCUUCAUCUCA; RNA, backbone not given here)",luciferase activity from pGL3-ERK5-3′UTR(×1),"HeLa, 11, 33 and 100 nM",did not inhibit luciferase activity
same,luciferase activity from pGL3-ERK5-3′UTR(×3),"HeLa, 11, 33 and 100 nM",inhibition of luciferase activity
same,luciferase expression,"Table 40, pGL3-ERK5-3′UTR(x1), 11 nM",81.9 percent untreated control
same,luciferase expression,"Table 40, pGL3-ERK5-3′UTR(x1), 33 nM",84.7 percent untreated control
same,luciferase expression,"Table 40, pGL3-ERK5-3′UTR(x1), 100 nM",62.2 percent untreated control
same,luciferase expression,"Table 41, pGL3-ERK5-3′UTR(ext), 11 nM",89.0 percent untreated control
same,luciferase expression,"Table 41, pGL3-ERK5-3′UTR(ext), 33 nM",106.7 percent untreated control
same,luciferase expression,"Table 41, pGL3-ERK5-3′UTR(ext), 100 nM",81.4 percent untreated control
same,luciferase expression,"Table 41, pGL3-ERK5-3′UTR(x1), 11 nM",92.2 percent untreated control
same,luciferase expression,"Table 41, pGL3-ERK5-3′UTR(x1), 33 nM",108.1 percent untreated control
same,luciferase expression,"Table 41, pGL3-ERK5-3′UTR(x1), 100 nM",81.9 percent untreated control
same,luciferase expression,"Table 41, pGL3-ERK5-3′UTR(x3), 11 nM",51.7 percent untreated control
same,luciferase expression,"Table 41, pGL3-ERK5-3′UTR(x3), 33 nM",51.0 percent untreated control
same,luciferase expression,"Table 41, pGL3-ERK5-3′UTR(x3), 100 nM",28.2 percent untreated control
